# Laboratory results taken from patent US20260184749A1, “CARBOHYDRATE BINDING POLYPEPTIDE OF SAVALIA SAVAGLIA” (University of Belgrade, priority 2021, published 2026).
# Where two headings read alike, the source gives them in different places.
# How the values were obtained:
# [1] = tested on: Sava lectin (Savalithsin) from Savalia (Gerardia) savaglia, isoforms SEQ ID NOs: 1, 2, 3 and 4; assay: Turbidimetric activity assay of carbohydrate binding to Sava lectin
# Experimental: Turbidimetric activity assay was performed to confirm ITC results. […] This small binding constant produces small heat effect that cannot be observed by ITC.
# [2] = tested on: Sava lectin (Savalithsin) from Savalia (Gerardia) savaglia, isoforms SEQ ID NOs: 1, 2, 3 and 4; assay: Isothermal titration calorimetry (ITC) of carbohydrate binding to Sava lectin; details: pH 7.4, 50 mM PBS, 25° C.
# Text: The present inventors have identified, purified and characterised a novel lectin from Savalia (Gerardia) savaglia. The inventors have identified four very closely-related isoforms of this lectin (see Table 1). The sequences of the isoforms are provided as SEQ ID NOs: 1, 2, 3 and 4. SEQ ID NO: 1 is the sequence of the most prevalent (dominant) form expressed in Savalia (Gerardia) savaglia (as determined by mass spectrometry). […] The lectin may be referred to herein as Sava lectin or Savalithsin. This term may be used to refer to a mixture comprising the four isoforms, which may optionally include other isoforms or variants as defined herein. References to recombinantly produced Savalithsin typically refer to the dominant form.
# Isothermal titration calorimetry (ITC) experiments were performed with Sava lectin at pH 7.4 in 50 mM phosphate buffered saline (PBS) at 25° C. and in the presence of different D-carbohydrates (mono- and di-saccharides).
# Thermodynamic parameters of mannose and methyl mannoside binding were obtained by algorithm for global fitting of the model function to the experimental ITC thermograms based on the iterative non-linear Levenberg-Marquardt χ2 regression procedure. The best agreement between model and experimental data was achieved when two binding sites per protein molecule were assumed.
# [3] = tested on: Sava lectin (Savalithsin) from Savalia (Gerardia) savaglia, isoforms SEQ ID NOs: 1, 2, 3 and 4; assay: Differential scanning calorimetry (DSC) of Sava lectin in the presence of carbohydrates; assay type: binding; details: for Melting point (Tm) of Sava lectin in the presence of carbohydrate: PBS pH 7.4, Sava lectin alone Tm 79.17° C.
# Experimental: Experiments with differential scanning calorimetry confirmed binding of mannose and methyl mannoside, see discussion of thermal stability below.
# Thermal stability was determined by differential scanning calorimetry (DSC). Experiments were performed in PBS at pH 7.4. […] Increased Tm indicates stabilization of protein structure in the presence of bound carbohydrate.
# [4] = target: Sava lectin (Savalithsin) from Savalia (Gerardia) savaglia, isoforms SEQ ID NOs: 1, 2, 3 and 4; assay: Microscale thermophoresis (MST) of carbohydrate binding to Sava lectin
# Text: Microscale thermophoresis (MST) experiments confirmed binding of mannose and methyl mannoside. […] Two Km values indicate existence of two binding sites that could be different of allosterically connected.
# [5] = target: the molecule itself; assay: MALDI-TOF mass spectrometry of Sava lectin (self-association, oligomers) [top]
molecule,measurement,setting,value
OC[C@H]1OC(O)[C@H](O)[C@@H](O)[C@@H]1O (stereo partly drawn) [D-glucose],Binding (turbidimetric activity assay),[1],weak binding
same,Binding constant compared with D-mannose,[1]; relative to D-mannose,two orders of magnitude lower than for D-mannose
same,Binding observed using ITC,[2],did not observed binding
OC[C@H]1OC(O)[C@@H](O)[C@@H](O)[C@@H]1O (stereo partly drawn) [D-mannose],Melting point (Tm) of Sava lectin in the presence of carbohydrate,[3],79.63 °C
same,Binding constant (Kb),[2],2514 M⁻¹
same,Kd,"[4]; first of two binding events, read-out: Dissociation constant (Kd), first binding event",0.0265 mM
same,Kd,"[4]; second of two binding events, read-out: Dissociation constant (Kd), second binding event",11.2 mM
CC(=O)N[C@H]1C(O)O[C@H](CO)[C@H](O)[C@@H]1O (stereo partly drawn) [N-acetyl galactosamine],Binding observed using ITC,[2],did not observed binding
CC(=O)N[C@H]1C(O)O[C@H](CO)[C@@H](O)[C@@H]1O (stereo partly drawn) [N-acetyl glucosamine],Binding observed using ITC,[2],did not observed binding
O=C[C@@H](O)[C@H](O)[C@H](O)CO [arabinose],Binding observed using ITC,[2],did not observed binding
C[C@@H]1OC(O)[C@@H](O)[C@H](O)[C@@H]1O (stereo partly drawn) [fucose],Binding observed using ITC,[2],did not observed binding
OC[C@H]1OC(O)[C@H](O)[C@@H](O)[C@H]1O (stereo partly drawn) [galactose],"Tm of Sava lectin in the presence of carbohydrate, compared with Sava lectin only",[3]; PBS pH 7.4,the same as in the experiment with Sava lectin only
same,Binding observed using ITC,[2],did not observed binding
OC[C@H]1O[C@@H](O[C@H]2[C@H](O)[C@@H](O)C(O)O[C@@H]2CO)[C@H](O)[C@@H](O)[C@H]1O (stereo partly drawn) [lactose],Binding observed using ITC,[2],did not observed binding
OC[C@@H](O)[C@@H](O)[C@H](O)[C@H](O)CO [mannitol],Binding observed using ITC,[2],did not observed binding
CO[C@H]1O[C@H](CO)[C@@H](O)[C@H](O)[C@@H]1O [methyl alpha-D-mannoside],Melting point (Tm) of Sava lectin in the presence of carbohydrate,[3],79.55 °C
same,Binding constant (Kb),[2],1270 M⁻¹
same,Kd,[4]; read-out: Dissociation constant (Kd),13.2 mM
OC[C@H]1O[C@H](OC[C@H]2O[C@H](O[C@]3(CO)O[C@H](CO)[C@@H](O)[C@@H]3O)[C@H](O)[C@@H](O)[C@@H]2O)[C@H](O)[C@@H](O)[C@H]1O [raffinose],Binding observed using ITC,[2],did not observed binding
C[C@@H]1OC(O)[C@H](O)[C@H](O)[C@H]1O (stereo partly drawn) [rhamnose],Binding observed using ITC,[2],did not observed binding
"Sava lectin (isolated and purified from the coral Savalia (Gerardia) savaglia) (other, No glycosylation or other post-translational modification was observed; also called Savalithsin) SNLRWVATSGGKVPEHAVVGGENFSGEVLYVARVRINSGLTPGKMAPSYRVAHTSYGGKEFYKSDYELITNPGWKSHIEWKYHEGHSKPTNAVLGGTDQRNLYVARFMYGDGHMLSGKVLFDYGKAYLGYNNKEYESTKFYVLVEHPSW",binding result,[5],binds
